Patent publication US11911468B2, “Compositions and methods of treating sarcoma lung metastasis” (CASE WESTERN RESERVE UNIVERSITY, priority 2017, dated 2024)
Entries after “also recorded” stand apart in the source; their conditions may differ.

System: K7M2-luc2 pOS (VCAM-1/α4β1 interaction)
Assay: Established pOS after K7M2-luc2 i.v., weekly intranasal blockade of VCAM-1/a4 from Day 7
Assay type: in vivo, Balb/c mice
Details: 50 μg i.n. weekly from Day 7
Experimental: FIGS. 9A-C illustrate targeting site-specific VCAM-1/a4 interaction blunted established pOS growth in vivo. (A) Balb/c mice were inoculated with 5×10^5 K7M2-luc2 i.v. on Day 0, and then treated with i.n. PBS, 50 μg iVCAM-1p, or 50 μg PS/2 (anti-a4) antibody weekly starting on Day 7. (A) representative images of mice up to 35 days. […] (C) 60% and 80% of pOS mice remained tumor free 1 month after weekly i.n. treatment with PS/2 antibody (filled circle) or iVCAM-1p (filled triangle), respectively. N=5-8 in each cohort.
To strengthen the crucial link between tVCAM-1 and α4β1 (FIGS. 5-8) and pOS survival, we performed pilot experiments to test whether direct functional blockade of VCAM-1/α4β1 interaction in the lung would result in the same pOS outcome as observed with MACs depletion. In collaboration with Nicole Steinmetz in CWRU School of Engineering, we treated mice (inoculated 7 days prior with a lethal dose of K7M2 i.v.) with weekly i.n. administration of 50 μg of a VCAM-1 inhibitory peptide (iVCAM-1p; amino acid sequence: VHPKQHR (SEQ ID NO: 1)). […] These pilot observations strengthen our hypothesis that pOS-MAC critically interact through the VCAM-1/α4 axis. […] As we administered mAb via i.n. route, much of the reported side effects of chronic systemic Natalizumab exposure (such as hepatic injury and progressive multifocal leukoencephalopathy) can potentially be limited by reducing the dose and targeting locally in the lung.

## VHPKQHR [iVCAM-1p]
  pOS tumor incidence: dramatic decreased
  tumor burden (relative BLI intensity, Day 7 BLI set as 1): dramatic decreased; also recorded: reduced tumor burden
1 month after treatment
  mice remaining tumor free: 80%
